Assays:
Format in all cases: cell-based
E. coli (ATCC 25922) = test: MIC, broth microdilution
Description: (§1) Bacterial strains. S. aureus Newman was kindly provided by Prof Douglas Weibel; E. coli ATCC25922, S. aureus ATCC 33591 and P. aeruginosa ATCC 27853 were kindly donated by Prof. David Andes. E. coli DH5a was purchased from Thermo Fisher. The bacteria above were grown in Mueller Hinton Broth (MHB) media (Criterion, Santa Maria, Calif., USA). M. smegmatis mc^2155 strain was kindly donated by Prof. Adel M. Talaat, and was grown in Middlebrook 7H9 broth (HiMedia, West Chester, Pa., USA).
(§2) Minimal inhibitory concentration (MIC) measurements. The MIC of the different treatments on various bacteria strains was determined using the broth microdilution method. Briefly, 100 μL of the respective broth media containing serial twofold dilutions of each compound was placed into a 96-well tissue culture plate. Each bacterial strain was taken from an exponentially growing culture and diluted to 5×10^6 CFU/mL. 10 μL of such microbial suspension was inoculated in each well of the plate, resulting in a final bacteria concentration of approximately 5×10^5 CFU/mL. The bacteria were cultured at 37° C. for 24 h and their growth were observed by reading the optical density (OD) at 600 nm. The MIC was determined as the treatment concentration at which no microbial growth was observed. Broth containing microbial cells alone was used as a positive control and broth without bacteria inoculation was used as a negative control. Each test was carried out in 3 replicates.

E. coli (DH5 alpha) = test: MIC, broth microdilution
Description: as §1, §2

M. smegmatis (MC^2 155) = test: MIC, broth microdilution
Description: as §1, §2

[1] = tested on: P. aeruginosa (ATCC 27853); test: MIC, broth microdilution
Description: as §1, §2

[2] = tested on: S. aureus (MRSA ATCC33591); test: MIC, broth microdilution
Description: as §1, §2

S. aureus (Newman) = test: MIC, broth microdilution
Description: as §1, §2

[3] = tested on: broad spectrum of microbes; test: MIC, broth microdilution, across the strains tested; settings: E. coli, MRSA, P. aeruginosa (FIGS. 3G-I)
Description: as §1
as §2, with “Broth containing microbial cells alone was used as a positive control and broth without bacteria inoculation was used as a negative control. Each test was carried out in 3 replicates.” left out

E. coli biofilm = test: Biofilm inhibition assay (crystal violet); settings: streptomycin concentration 16 μg/mL
Description: (§3) Biofilm inhibition assays. Exponentially growing bacteria were inoculated into 96 well plates (1×10^4 cell/well) containing MHB broth with 2% (v/w) glucose, incubated under stationary conditions at 37° C. for one day. After biofilm formation, the media was discarded and the plates were washed with PBS to remove the planktonic bacteria. Fresh NMB broth containing serially diluted free streptomycin or PDC were added to the plates and incubated at 37° C. for another 24 h. The media in each well was then removed, and the plates were washed carefully with PBS for 1 time. The biofilm in each well was fixed with 95% ethanol for 15 min and stained with 0.1% crystal violet for 15 min. After washing with Milli-Q water for three times, 33% v/v acetic acid (100 μL/well) was added to solubilize the crystal violet staining. OD 560 in each well was read to determine the biofilm formation. The biofilm formed as described above was also stained with acridine orange and Cy5 labeled PDC, and monitored by CLSM to observe the PDC penetration.

P. aeruginosa biofilm = test: Biofilm inhibition assay (crystal violet); settings: 256 μg/mL streptomycin
Description: as §3

E. coli ATCC 25922 = test: Evaluation of antibiotic resistance development (serial passaging); settings: sub-lethal dose (0.5 MIC)
Description: Evaluation of antibiotic resistance development. E. coli ATCC 25922 was employed to study the drug resistance development under sublethal dose treatments of free streptomycin, cationic polymer or the PDC. During a serial of passages, the MIC of each treatment was measured by the broth microdilution method as described above, and the bacteria were exposed to ½MIC at that particular passage. MIC for each passage was recorded and normalized to that of the first passage to determine the drug resistance enhancement.

## Hex-Cys-Cys-DET-strep-DMA [Neutralized PDC]
E. coli (ATCC 25922); pH 6.0
  MIC E. coli (ATCC 25922): 20 µg/mL
E. coli (ATCC 25922); pH 7.4
  MIC E. coli (ATCC 25922): 80 µg/mL
E. coli (DH5 alpha); pH 6.0
  MIC E. coli (DH5 alpha): 20 µg/mL
E. coli (DH5 alpha); pH 7.4
  MIC E. coli (DH5 alpha): 80 µg/mL
M. smegmatis (MC^2 155); pH 6.0
  MIC M. smegmatis (MC^2 155): 2.5 µg/mL
M. smegmatis (MC^2 155); pH 7.4
  MIC M. smegmatis (MC^2 155): 20 µg/mL
[1]; pH 6.0
  MIC P. aeruginosa (ATCC 27853): 40 µg/mL
[1]; pH 7.4
  MIC P. aeruginosa (ATCC 27853): 160 µg/mL
[2]; pH 6.0
  MIC S. aureus (MRSA ATCC33591): 40 µg/mL
[2]; pH 7.4
  MIC S. aureus (MRSA ATCC33591): 160 µg/mL
S. aureus (Newman); pH 6.0
  MIC S. aureus (Newman): 20 µg/mL
S. aureus (Newman); pH 7.4
  MIC S. aureus (Newman): 80 µg/mL
[3]
  effect of pH (6.0 vs 7.4) on MIC, in words: performed significantly better at pH 6.0 than at 7.4
E. coli biofilm
  biofilm eliminated: 75%
P. aeruginosa biofilm
  biofilm reduced / removed: 96%
E. coli ATCC 25922
  increase in MIC after 20 passages: 2 fold

From patent publication US11911406B2, “PH-responsive polymer-drug conjugates for enhanced antibacterial efficacy” (priority 2020, dated 2024)
